These results are taken from patent US20110183978A1, “Phenylpyri(mi)dinylazoles” (Bayer CropScience AG, priority 2009, published 2011).

Where two headings read alike, the source gives them in different places.

The nature of series [1]: physchem.
Series [2] concerns Pyrenophora teres. The series is described as follows: Example E: in vivo test on Pyrenophora teres (barley net blotch disease). The following applies: barley plants sprayed 24 hours before inoculation, scored after 12 days; for pest or weed control at 500 ppm: Pyrenophora teres, 288 h, read-out: % Wirkungsgrad. The procedure: In Vivo Test on Pyrenophora Teres (Barley Net Blotch Disease) An aqueous suspension of the active substance was prepared by homogenization of a mixture of acetone/Tween/dimethyl sulphoxide and subsequent dilution with water to the desired concentration. Barley plants (variety: Plaisant) are sown in cultivation dishes on a peat-pozzolanic earth substrate (50/50) at 12° C. and sprayed at the first-leaf stage (10 cm size) with the aqueous suspension described above. As a control, plants are sprayed with an aqueous solution with no active substance. After 24 hours the plants are inoculated by spraying with an aqueous suspension of Pyrenophora teres spores (12,000 spores per ml). The spores are derived from a 12 day-old culture. […] After 12 days they are scored in comparison with the control plants.

In series [3] the test system is Fusarium proliferatum. The series is described as follows: Example I: production of fumonisin FB1 by Fusarium proliferatum (microtitre plates). The series is classed as cell-based. Conditions: for inhibition at 50 µM: 120 h.
Series [4] concerns Peronospora parasitica. The series is described as follows: Example A: in vivo test on Peronospora parasitica (downy mildew on white cabbage). The following applies: cabbage plants sprayed 24 hours before inoculation, scored after 5 days; for pest or weed control at 500 ppm: Hyaloperonospora parasitica, 120 h, read-out: % Wirkungsgrad. The procedure: In Vivo Test on Peronospora Parasitica (Downy Mildew on White Cabbage) An aqueous suspension of the active substance was prepared by homogenization of a mixture of acetone/Tween (dispersant)/dimethyl sulphoxide (DMSO) and subsequent dilution with water to the desired concentration. Cabbage plants (variety: Eminence) are sown in cultivation dishes on a peat-pozzolanic earth substrate (50/50) at 18-20° C. and sprayed at the cotyledon stage with the aqueous suspension described above. As a control, plants are sprayed with an aqueous solution with no active substance. After 24 hours, the plants are inoculated by spraying with an aqueous suspension of Peronospora parasitica spores (50,000 spores per ml). The spores are derived from infected plants. The inoculated cabbage plants are incubated for 5 days at ca. 20° C. in a moist atmosphere. After 5 days, they are scored in comparison with the control plants.

The subject of series [5] is Sphaerotheca fuliginea. The series is described as follows: Example D: in vivo test on Sphaerotheca fuliginea (powdery mildew on cucumber). The following applies: Podosphaera fuliginea, 288 h, cucumber plants sprayed 24 hours before inoculation, scored after 12 days, read-out: % Wirkungsgrad. In outline:
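Scoring took place 12 days after spore inoculation (100,000 spores/ml, at ca. 20/25° C., 60/70% RH) and was made against plants sprayed without active substance. Inoculation followed by 24 hours a spray of water-diluted acetone/Tween/DMSO compound suspension onto Z10 cotyledon-stage cucumbers.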

Series [6] concerns Alternaria solani. The series is described as follows: Example M: in vivo test on Alternaria solani (leaf blotch disease/tomato/protective). The following applies: 168 h, tomato, protective, 500 ppm active substance, assessed 7 days after inoculation, read-out: % Wirkungsgrad (activity level). The essentials:
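Alternaria solani infection on tomato scored 7 days post-inoculation. Before inoculation, young plants received a protective spray at the stated application dose; formulation was compound mixed with N,N-dimethylformamide and emulsifier, water-diluted.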

The subject of series [7] is Rhizoctonia solani. The series is described as follows: Example W: in vivo test on Rhizoctonia solani (sheath blight in rice/protective). Conditions: 96 h, rice, protective, 250 ppm active substance, assessed 4 days after inoculation, read-out: % Activity level. As for the experimental part:
Solvent: 28.5 parts by weight acetone Emulsifier: 1.5 parts by weight alkylaryl polyglycol ethers For the preparation of a suitable active substance preparation, 1 part by weight of active substance is mixed with the stated quantities of solvent and emulsifier and the concentrate is diluted to the desired concentration with water. For the testing for protective activity, young rice plants are sprayed with the active substance preparation at the stated application dosage. One day after the treatment, the plants are inoculated with hyphae of Rhizoctonia solani. […] 4 days after the inoculation, the assessment takes place.

The test system of series [8] is Pyricularia oryzae. The series is described as follows: whole plant or invertebrate. Type of series: in vivo. The following applies: 120 h, read-out: % Activity level.
The test system of series [9] is Fusarium graminearum. The series is described as follows: microbe, parasite or virus in culture. Type of series: cell-based.
Series [10] has as its system Fusarium nivale (var. majus). The series is described as follows: whole plant or invertebrate. The series is classed as in vivo. The following applies: Microdochium nivale, in Triticum aestivum, 120 h, read-out: % Wirkungsgrad (activity level).
Series [11] relates to Aspergillus parasiticus. The series is described as follows: microbe, parasite or virus in culture. Type of series: cell-based. Conditions: 168 h.
Series [12] deals with Fusarium graminearum. The series is described as follows: whole plant or invertebrate. The series is classed as in vivo. Conditions: in Hordeum vulgare, 120 h, read-out: % Wirkungsgrad (activity level).
Series [13] relates to Venturia inaequalis. The series is described as follows: Example O: in vivo test on Venturia inaequalis (apple scab/protective). The following applies: 240 h, protective, assessment 10 days after inoculation, read-out: % Wirkungsgrad. In outline: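 Young plants received a preventive spray of compound formulated as an emulsifier-containing aqueous dilution at the given application rate, then were inoculated with apple scab fungus. Disease was scored 10 days post-inoculation.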

Series [14] has as its system Rhynchosporium secalis. The series is described as follows: Example S: in vivo test on Rhynchosporium secalis (leaf scald in barley/protective). The following applies: 336 h, barley, protective, 1000 ppm active substance, assessed 14 days after inoculation, read-out: % Wirkungsgrad (activity level). As for the experimental part: (§1) Solvent: 49 parts by weight N,N-dimethylacetamide Emulsifier: 1 part by weight alkylaryl polyglycol ethers For the preparation of a suitable active substance preparation, 1 part by weight of active substance is mixed with the stated quantities of solvent and emulsifier and the concentrate is diluted to the desired concentration with water. For the testing for protective activity, young plants are sprayed with the active substance preparation at the stated application dosage. After drying of the spray coating, the plants are sprayed with spores with a spore suspension of Rhynchosporium secalis. […] 14 days after the inoculation, the assessment takes place.

Series [15] concerns Sphaerotheca fuliginea. The series is described as follows: Example L: in vivo test on Sphaerotheca fuliginea (powdery mildew on cucumber/protective). The following applies: Podosphaera fuliginea, 168 h, cucumber, protective, assessment 7 days after inoculation, read-out: % Wirkungsgrad. In outline:
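Young cucumber plants sprayed at stated dosage with compound in DMF/alkylaryl polyglycol ether emulsifier diluted in water; inoculated with S. fuliginea spores one day later. Kept in greenhouse at 70% relative humidity, 23° C; protective activity assessed 7 days after inoculation.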

Series [16] has as its system Septoria tritici. The series is described as follows: Example R: in vivo test on Septoria tritici (leaf blotch in wheat/protective). The following applies: Zymoseptoria tritici, 504 h, wheat, protective, 1000 ppm active substance, assessed 21 days after inoculation, read-out: % Wirkungsgrad (activity level). The essentials:
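Protective test: young wheat plants sprayed with compound in N,N-dimethylacetamide/alkylaryl polyglycol ether emulsifier diluted in water, dried, then inoculated with Septoria tritici spore suspension. Disease assessed 21 days after inoculation.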

Series [17] concerns Leptosphaeria nodorum. The series is described as follows: Example Q: in vivo test on Leptosphaeria nodorum (glume blotch in wheat/protective). Conditions: Parastagonospora nodorum, 192 h, wheat, protective, assessment 8 days after inoculation, read-out: % Wirkungsgrad. The procedure: as §1, with “Leptosphaeria nodorum.” for “Rhynchosporium secalis.”, “8” for “14”
For series [18], the system named is Botrytis cinerea. The series is described as follows: Example P: in vivo test on Botrytis cinerea (gray mould on bean/protective). Conditions: 48 h, bean, protective, 250 ppm active substance, assessed 2 days after inoculation, read-out: % Wirkungsgrad (activity level). In outline:
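Infection blotch size on leaves was scored 2 days after placing 2 Botrytis-colonised agar pieces per leaf. Inoculation followed drying of a protective spray applied to young plants at the stated dosage. Spray was prepared by diluting compound with solvent and alkylaryl polyglycol ether emulsifier in water.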

The test system of series [19] is Plasmopara viticola. The series is described as follows: Example N: in vivo test on Plasmopara viticola (downy mildew, vine/protective). The following applies: 144 h, vine, protective, assessment 6 days after inoculation, read-out: % Wirkungsgrad. The essentials: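 Assessment of downy mildew on vines took place 6 days post-inoculation, after 1 day of moist incubation. Before infection, the young plants received a protective spray of compound emulsified with alkylaryl polyglycol ethers and diluted with water to the stated application rate.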

The mark [20] stands for this setting: LogPA (logP of the stated pure compound or, in a mixture, of the main isomer, 1-substituted 3-aryl-1H-pyrazole).
The mark [21] stands for this setting: Fusarium proliferatum growth, OD 620, 5 days, read-out: % Inhibition des Pilzwachstums bei 50 μM.
Setting [22] is: Fusarium proliferatum, 5 days at 20° C., HPLC-MS/MS, read-out: % Inhibition der FB1 produktion bei 50 μM.
[23] abbreviates: 72 h, read-out: % Inhibition des Pilzwachstums bei 50 μM.
[24] abbreviates: 168 h, read-out: % Inhibition der DON/AcDON produktion bei 50 μM.

Broadly, the chromatographic logP is lipophilicity estimated from chromatographic retention. On to `CC(C)=CCn1cc(-c2ccncc2)c(-c2c(F)cccc2F)n1` [Compound 7], for which the chromatographic logP in [1] (setting [20]) worked out at 1.69. Moreover, in [2], the pest or weed control at 500 ppm is 73%.
On to `CCC(=O)Nc1cc(-c2cn(C3CCCCO3)nc2-c2ccc(F)cc2)ccn1` (stereo not shown) [Compound 19], for which the chromatographic logP in series [1] (setting [20]) was determined as 2.32. In addition, the values for the pest or weed control at 500 ppm in [2] and in series [4] were 83% and 100%, respectively. Besides, the figures for the inhibition at 50 µM in [3] (setting [21]) and in series [3] (setting [22]) were 68% and 100%, respectively.
Regarding `CC(C)C(=O)Nc1cc(-c2cn(C3CCCCO3)nc2-c2ccc(F)cc2)ccn1` (stereo not shown) [Compound 21], the “% Wirkungsgrad” value is on record as 73% in series [2] (500 ppm) and 100% in [4] (500 ppm). Also, the “% Inhibition der FB1 produktion bei 50 μM” value in series [3] (5 days at 20° C., HPLC-MS/MS) is on record as 100%. The “% Inhibition des Pilzwachstums bei 50 μM” value in [3] (Fusarium proliferatum growth, OD 620, 5 days) is recorded as 55%.
`CC(C)Cn1ncc(-c2ccncc2)c1-c1ccc(F)cc1` [Compound 24]: the chromatographic logP in series [1] (setting [20]) is 1.59. Besides, the values for the pest or weed control at 500 ppm in series [2] and in series [5] were 92% and 88%, respectively.
Turning to `CC(C)=CCn1cc(-c2ccncc2)c(-c2ccc(F)cc2)n1` [Compound 30], the pest or weed control at 500 ppm in series [6] turned out to be 90%. In addition, in [1] (setting [20]), the chromatographic logP was determined as 2.11. Moreover, the pest or weed control at 250 ppm in series [7] was 95%; in series [8], 80%.
On to `CC(C)Cn1cc(-c2ccnc(NC(=O)C(C)C)c2)c(-c2ccc(F)cc2)n1` [Compound 87], for which the inhibition at 50 µM in series [9] (setting [23]) stood at 97%; in series [9] (setting [24]), 100%; in series [11] (50 μM, 7 days at 20° C., read-out: Inhibition der Aflatoxin produktion bei 50 μM), 100%; in series [11] (read-out: % Inhibition des Pilzwachstums bei 50 μM), 97%; in [3] (setting [21]), 83%; in series [3] (setting [22]), 100%. Moreover, the results for the pest or weed control at 500 ppm in [6] and in series [15] were 95% and 100%, respectively. The pest or weed control at 1000 ppm in series [10] amounted to 92%; in series [12], 100%; in [14], 88%; in series [16] it was 100%; in [17] it was 88%. Further, the chromatographic logP in series [1] (setting [20]) is 2.89. In series [13], the pest or weed control at 100 ppm was found to be 95%. In addition, the pest or weed control at 250 ppm in [18] turned out to be 100%.
In the case of `C=CCNc1nccc(-c2cn(CC(C)C)nc2-c2ccc(F)cc2)n1` [Compound 150], the inhibition at 50 µM in series [9] (setting [23]) turned out to be 97%; in series [9] (setting [24]), 99%. The pest or weed control at 500 ppm was 95% in series [6]; 86% in series [2]; 96% in series [5]; 93% in [15]; 100% in series [4]. Further, in series [1] (setting [20]), the chromatographic logP is 2.46.
Take `Fc1ccc(-c2nn(CC(F)F)cc2-c2ccncc2)cc1` [Compound 169]: the inhibition at 50 µM worked out at 101% in [9] (setting [23]) and 100% in [9] (setting [24]). Further, the pest or weed control at 1000 ppm in series [10] is 71%; in [12] it was 100%; in series [14], 100%; in series [16], 100%; in series [17], 100%. For the same molecule, the chromatographic logP in series [1] (LogPA) came to 1. Besides, the pest or weed control at 100 ppm is 99% in series [13] and 96% in [19]. Also, the pest or weed control at 250 ppm in [7] and in series [18] was 100% throughout. Further, the pest or weed control at 500 ppm in series [15] is 89%.
Consider `CC(C)C(=O)Nc1cc(-c2cn(CC3CC3)nc2-c2ccc(F)cc2)ccn1` [Compound 225], for which the inhibition at 50 µM in series [9] (setting [23]) was 92%; in series [9] (setting [24]), 89%; in series [3] (setting [21]) it was 93%; in series [3] (setting [22]) it was 100%. For the same molecule, the pest or weed control at 500 ppm worked out at 95% in series [6] and 100% in [15]. Also, the pest or weed control at 1000 ppm stood at 100% in series [10]; 100% in [12]; 90% in series [14]; 100% in series [16]; 86% in [17]. In addition, in series [1] (LogPA), the chromatographic logP came out at 2.54. Further, the figures for the pest or weed control at 100 ppm in [13] and in series [19] were 96% and 90%, respectively. Besides, the pest or weed control at 250 ppm in series [18] was found to be 96%.
